In PMC2630844, “Characterizing the Anti-HIV Activity of Papuamide A” (Marine Drugs, 2008):
*1 amine or outer side, *2 acyl side, *3 side chain or, on linkers, in order; H or OH if unused. Where a SMILES comes first, the peptide text is derived from it. Bridges are numbered along the chain shown (N, C = ends). Side-chain parts run from the residue outwards. [ ]: non-standard residue; d: D form. The star is where a group is joined. Gln(3S,4R-Me2) = C[C@H]([C@H](N)C(=O)O)[C@@H](C)C(N)=O; dTyr(βR-OMe) = CO[C@H](c1ccc(O)cc1)[C@@H](N)C(=O)O; Biotin = O=C1N[C@H]2[C@H](CS[C@H]2CCCCC(=O)*)N1; X3 = CC(C)[C@@H](O[*:3])[C@H](N[*:1])C(=O)[*:2]; X1 = CCC(C)/C=C(C)/C=C\C(O)C(C)(O)C(=O)*; X2 = CC(N[*:3])[C@H](N[*:1])C(=O)[*:2]; NMeT = CN[C@H](C(=O)O)[C@@H](C)O; Pip = O=C(O)[C@@H]1CCCCN1; Ahx = NCCCCCC(=O)O

Assays:
[1] = system: DHIV-3 pseudotype virus expressing X4 tropic envelope (IIINL4), CEM-SS cells; type: cell-based, HIV; conditions: duplicate determinations
[2] = system: HIV-1NL4-3 (X4 tropic virus) entry into HeLa T4+ cells; test: Virion based fusion assay (BlaM-Vpr), X4 tropic virus; type: cell-based; conditions: n≥4
[3] = system: HIV-1NL(AD8) (R5 tropic virus) entry into TZM-bl cells; test: Virion based fusion assay (BlaM-Vpr), R5 tropic virus
Experimental: Briefly, production of virus was accomplished by co-transfection of 20 μg of pMM310 (plasmid encoding β-lactamase linked to Vpr, BlaM-Vpr) [56],10 μg pAdVAntage (Invitrogen, Carlsbad, CA); and 60 μg pNL4-3(X4 tropic proviral DNA) [50] or pNL(AD8) (R5 tropic proviral DNA) [51] into 293FT cells using standard calcium phosphate transfection. Virus was collected after 48 hours and titered using the RETROtek p24 ELISA kit (ZeptoMatrix, Buffalo, NY). HeLaT4 or TZM-bl cells, 200μL at a concentration of 1 X 10^5 cells/mL, were plated into 96 well, black walled, flat bottom plates and placed in a 37°C, 5% CO2 humidified incubator overnight for attachment. Medium was aspirated and 200 μL of medium containing virus, at a predetermined p24 concentration of 200 ng/mL, was added with test compounds or vehicle. Cells were incubated at 37°C, 5% CO2 for 2 hours. Virus was aspirated off and cells rinsed twice with room temperature CO2 independent medium (Invitrogen, Carlsbad, CA). Cells were then loaded with CCF2-AM fluorescent substrate (Invitrogen, Carlsbad, CA) according to manufacturer’s protocol. Cells were incubated, protected from light, for 1 hour at room temperature and washed twice with room temperature CO2 independent medium. Next, 200 μL of room temperature CO2 independent medium supplemented with 10% FBS and 2.5mM probenecid (Sigma-Aldrich, St. Louis, MO) was added and the reaction was allowed to develop for 5–7 hours.
When fusion occurs, β-lactamase (BlaM) present in the virus cleaves the CCF2-AM substrate. This cleavage results in a change of the fluorescence emission from green to blue. Images of the cells were taken with a fluorescent microscope equipped with the appropriate filter set, Excitation filter 405±10 nm, Dicroic mirror 425, Emission Filter (blue) 460±20 nm, and Emission Filter (green) 530±15 nm. Using ImageJ, an image software program provided by NIH, the amount of green and blue fluorescence was determined. To quantify the observed fusion, a fluorescence ratio was calculated by dividing the amount of blue fluorescence by the amount of green fluorescence. This value was then normalized to the non-infected control by dividing the calculated values by the average control value.

[4] = system: phosphatidylserine (PS) containing liposomes; conditions: cited from earlier work
Text: (§1) Papuamide B only differs from papuamide A by one methyl group. […] PS is a phospholipid normally present on the inner leaflet of the cell membrane, but during apoptosis the regulation of PS is altered and PS is present on the outer leaflet.

[5] = system: liposomes composed solely of phosphatidylcholine; conditions: cited from earlier work
Text: as §1

sCD4 = biological target: T1, sCD4 (Homo sapiens, UniProt P01730); test: Surface plasmon resonance, papuamide A - sCD4; type: binding
T1 construct: Soluble CD4 (sCD4)
Experimental: (§2) The expected response at saturation is determined by the following formula: LCR/MWL×MWA , (LCR=Ligand capture response, amount of papuamide A captured onto the biosensor chip; MWL=molecular weight of ligand, papuamide A; and MWA=molecular weight of analyte, the protein or peptide.)[23–26] The observed response, determined by the BIAcore instrument detector in response units (RU), can be lower than the expected response if the concentration of analyte used is below the dissociation constant (KD) concentration value, KD values were calculated by the software from the binding responses obtained with multiple concentrations of analyte. When this is the case, the fold difference in concentration values (KD/concentration of analyte used) is approximately proportionate to the fold difference in responses (expected response/observe response). Therefore, to correct for the expected response at the maximum concentration tested, the expected response at saturation was divided by the fold difference in concentration values to determine the expected response at the maximum value tested.
(§3) Binding interactions were quantified by surface plasmon resonance (SPR). Studies were performed at the University of Utah Protein Interactions facility on a BIAcore 3000 instrument. Briefly, papuamide A was biotinylated using the EZ-Link Sulfo-NHS-LC-LC-Biotin reagent (Pierce Biotechnology, Rockford, IL) with reaction products purified by reverse phase high performance liquid chromatography (HPLC). Biotinylation was confirmed by mass spec and presumed to target the free amine of the 2,3-diaminobutenoic acid. Biotinylated papuamide A was captured onto a chip with a carboxymethylated dextran matrix preimmobilized with streptavidin. Analytes were then flowed over the chip in hepes buffered saline (HBS) running buffer containing 1 mg/mL bovine serum albumin to reduce nonspecific binding. […] Data analyzed using the SCRUBBER software, developed by the University of Utah Protein Interactions Facility.

[6] = system: pseudotype virus expressing LAI (X4 tropic) envelope, CEM-SS cells; type: cell-based, HIV; conditions: 178 nM (Fig. 4; text 174nM); flow cytometry of GFP, 48 h; n≥3
[7] = system: DHIV-3 pseudotype virus expressing IIINL4 envelope, CEM-SS cells; type: cell-based, HIV; conditions: papuamide A 178 nM with annexin V 0.1 μM; n=3
[8] = system: pseudotype virus expressing JRFL (R5 tropic) envelope, CEM.NKR-CCR5 cells; type: cell-based, HIV; conditions: 178 nM (Fig. 4; text 174nM); flow cytometry of GFP, 48 h; n≥3
[9] = system: NL4-3 BlaM-Vpr virus entry, HeLa T4 cells; test: Papuamide A preincubation in virion fusion assay; type: cell-based, HIV-1; conditions: 178 nM (Fig. 6a) or 710 nM (method), n≥3
Experimental: HeLa T4 cells were infected with NL4-3 BlaM virus and treated with 710 nM papuamide A, following these three protocols: Virus pretreated with papuamide A for 30 minutes at room temperature prior to dilution and addition to the cells; Cells pretreated with papuamide A for 2 hours followed by aspiration of papuamide A containing medium and addition of virus; Virus and papuamide A added to the cells at the same time.

[10] = Surface plasmon resonance, papuamide A - positive control peptide; type: binding
Experimental: as §2
Binding interactions were quantified by surface plasmon resonance (SPR). Studies were performed at the University of Utah Protein Interactions facility on a BIAcore 3000 instrument. […] Data analyzed using the SCRUBBER software, developed by the University of Utah Protein Interactions Facility.

[11] = system: 20% phosphatidylserine / 80% phosphatidylcholine vesicles; test: Surface plasmon resonance, PS:PC vesicle binding; conditions: 20% PS, 80% PC vesicles; data not shown
Experimental: (§4) Papuamide A’s ability to bind to phosphatidylserine was observed using surface plasmon resonance. Twenty percent phosphatidylserine and 80% phosphatidylcholine (PC) vesicles were tested alongside 100% PC vesicles. […] This indicates there is a preferential binding of papuamide A to phosphatidylserine. To determine if binding of PS alone was sufficient to inhibit viral entry, annexin V (AV) was tested in the virion based fusion assay.

[12] = system: 100% phosphatidylcholine (PC) vesicles; test: Surface plasmon resonance, PC vesicle binding; conditions: 100% PC vesicles; data not shown
Experimental: as §4

[13] = system: VSV-G pseudotype virus, CEM-SS cells; type: cell-based, HIV pseudotyped with vesicular stomatitis virus envelope; conditions: n≥3
gp120 = gp120 (Human immunodeficiency virus type 1 group M subtype B, UniProt P03375); test: Surface plasmon resonance, papuamide A - gp120; type: binding, HIV
Experimental: as §2, §3

[14] = system: pseudotype virus infection; type: cell-based, HIV; conditions: 174nM papuamide A; flow cytometry of GFP; data not shown
[15] = system: viral infection of cells preincubated overnight; test: Overnight preincubation of cells with papuamide A; type: cell-based, HIV; conditions: data not shown
[16] = system: pseudotype virus expressing amphotropic murine leukemia virus (aMLV) envelope glycoprotein, CEM-SS cells; type: cell-based; conditions: 178 nM (Fig. 4; text 174nM); flow cytometry of GFP, 48 h; n≥3
[17] = system: pseudotype virus expressing vesicular stomatitis virus (VSV) envelope glycoprotein, CEM-SS cells; type: cell-based, HIV pseudotyped with vesicular stomatitis virus envelope; conditions: n≥3
HIV T cell infection = conditions: binding of PS by Annexin V; cited from earlier work
Text: as §1

[18] = system: HIV infection of monocyte and macrophage; conditions: binding of PS by Annexin V; cited from earlier work
Text: as §1

Molecule: Cc1cn([C@H]2C[C@H](N=[N+]=[N-])[C@@H](CO)O2)c(=O)[nH]c1=O [AZT, azidothymidine]
- effect of delayed addition, 1 hour ([1]; C34 233 nM or AZT 3.7 μM added 1 hour after virus): no difference in activity
- effect of delayed addition, 2 hours ([1]; C34 233 nM or AZT 3.7 μM added 2 hours after virus): only a minor loss of activity
- inhibition of viral entry ([2]; AZT at 18 μM, fluorescence ratio): did not prevent viral entry

Molecule: papuamide B
- inhibition of viral entry ([3]; 710 nM, NL(AD8), n≥4): approximately 80%
- binding to and leakage of liposomes [4]: bind to and cause leakage of phosphatidylserine (PS) containing liposomes
- binding to and leakage of liposomes [5]: not those composed solely of phosphatidylcholine

Molecule: CCC(C)/C=C(C)/C=C\C(O)C(C)(O)C(=O)NCC(=O)N[C@H](C(=O)N[C@H](C(=O)N[C@H](C(=O)N[C@@H]1C(=O)N[C@H](COC)C(=O)NCC(=O)N[C@@H](C)C(=O)N(C)[C@@H]([C@@H](C)O)C(=O)N[C@H]([C@H](OC)c2ccc(O)cc2)C(=O)N2CCCC[C@H]2C(=O)O[C@@H]1C(C)C)[C@@H](C)[C@@H](C)C(N)=O)C(C)NC(=O)CCCCCNC(=O)CCCCCNC(=O)CCCC[C@@H]1SC[C@@H]2NC(=O)N[C@@H]21)[C@@H](C)O (stereo partly drawn) [papuamide A] (X1-GT[X2]([Ahx-Ahx-Biotin])[Gln(3S,4R-Me2)][X3][dS](Me)GA[NMeT][dTyr(βR-OMe)][Pip]; ester 5-C)
- inhibition of R5 tropic virus entry ([3]; 710-43.4 nM, n≥3): effectively inhibited the entry of the R5 tropic virus in a dose dependant manner
- inhibition of X4 and R5 virus entry, papuamide A alongside annexin V ([3]; Fig. 7a, R5 (NL(AD8)), n≥4): remained active
- observed response lower than calculated expected response (sCD4; at maximum sCD4 concentration tested): 600 times lower
- Fold Difference of Responses (sCD4; expected response at saturation / observed response, sCD4): 974
- SPR binding response significance (sCD4; sCD4): determined not to be significant
- inhibition of infection [6]: inhibits infection
- effect of papuamide A in presence of annexin V [7]: unchanged in the presence of AV
- inhibition of infection [8]: inhibits infection
- inhibition of viral entry ([2]; 710 nM papuamide A, 2 h infection, blue/green fluorescence ratio): approximately 80%
- inhibition of X4 and R5 virus entry, papuamide A alongside annexin V ([2]; Fig. 7a, X4 (NL4-3)): remained active
- inhibition of viral entry after cell pretreatment ([9]; cells incubated with papuamide A 2 hours, removed, two washes, then infected): did not result in inhibition of viral entry
- inhibition after virus pretreatment ([9]; virus pretreated 30 minutes then diluted): rate of inhibition similar to when papuamide A was added at the same time as virus
- SPR interaction with positive control peptide [10]: shown to interact with a positive control binding peptide
- Kd ([10]; calculated by software from binding responses at multiple peptide concentrations, max 5 μM, biotinylated papuamide A captured on chip): 176 µM
- SPR vesicle binding [11]: exhibited binding to papuamide A
- SPR vesicle binding [12]: did not
- decreased infectivity, pretreated versus simultaneous addition ([13]; 178 nM): the same as that observed when papuamide A was added to cells at the same time as VSV-G pseudotype virus
- decreased infectivity after virus pretreatment [13]: ~50%
- observed response lower than calculated expected response (gp120; at maximum gp120 concentration tested): 54 times lower
- Fold Difference of Responses (gp120; expected response at saturation / observed response, gp120): 1284
- SPR binding response significance (gp120; gp120): determined not to be significant
- inhibition of infection [14]: approximately 50%
- inhibition of infection after overnight cell preincubation [15]: failed to inhibit viral infection
- inhibition of infection [16]: effectively inhibited infection
- inhibition of infection [17]: effectively inhibited infection

B1: annexin V: a specific binder of PS (protein, UniProt P08758 2-320, looked up)
Annexin A5: AQVLRGTVTDFPGFDERADAETLRKAMKGLGTDEESILTLLTSRSNAQRQEISAAFKTLFGRDLLDDLKSELTGKFEKLIVALMKPSRLYDAYELKHALKGAGTNEKVLTEIIASRTPEELRAIKQVYEEEYGSSLEDDVVGDTSGYYQRMLVVLLQANRDPDAGIDEAQVEQDAQALFQAGELKWGTDEEKFITIFGTRSVSHLRKVFDKYMTISGFQIEETIDRETSGNLEQLLLAVVKSIRSIPAYLAETLYYAMKGAGTDDHTLIRVMVSRSEIDLFNIRKEFRKNFATSLYSMIKGDTSGDYKKALLLLCGEDD
- inhibition of R5 virus entry ([3]; annexin V at concentrations similar to and higher than that shown to inhibit HIV infection, NL(AD8), n≥4): did not have any inhibitory effect
- inhibition of X4 virus entry ([2]; annexin V at concentrations similar to and higher than that shown to inhibit HIV infection, NL4-3): did not have any inhibitory effect
- inhibition of infection (HIV T cell infection): not T cell infection
- inhibition of infection [18]: able to inhibit monocyte and macrophage infection
